# Legend:
# [1] = tested on: human neutrophils; assay: Neutrophil degranulation: release of vitamin B12 binding protein; type: cell-based; conditions: 20 μg/ml
# Description: (§1) The activation of human neutrophils by nitro compounds was assessed by the ability to stimulate superoxide production (chemiluminescence response) and release of lysosomal enzymes from specific and azurophilic granules. Neutrophils were prepared from whole blood taken from normal healthy volunteers by the rapid-single step procedure^(41). Briefly, blood anticoagulated with heparin was carefully layered on a hypaque-ficoll medium of 1.114 g/ml and centrifuged in swing-out-buckets at 200 g/30 min. The leukocytes were resolved into two bands and the erythrocytes sedimented at the bottom of the tube. The second leukocyte band approximately 0.7 cm from the mononuclear cell containing band at the interface contained neutrophils of >98% purity and >99% viability (trypan blue dye exclusion criteria). The neutrophils were carefully harvested with a pasteur pipette, and washed and resuspended in tissue culture medium. The respiratory burst response of neutrophils was assessed by measuring superoxide production by the lucigenin dependent chemiluminescence assay essentially as described previously^(42). Briefly, 1×10^6 neutrophils (100 μl) in HBSS were treated with the nitro analogues of fatty acids (100 μl), then lucigenin was added and the volume made up. […]
# [2] = molecular target: T1, 15-LO (Glycine max, UniProt P08170); assay: Effect on 15-LO catalysed oxidation of arachidonic acid; type: biochemical, soybean
# T1 construct: purchased Sigma Chemical Company
# T1 sequence (P08170 1-839): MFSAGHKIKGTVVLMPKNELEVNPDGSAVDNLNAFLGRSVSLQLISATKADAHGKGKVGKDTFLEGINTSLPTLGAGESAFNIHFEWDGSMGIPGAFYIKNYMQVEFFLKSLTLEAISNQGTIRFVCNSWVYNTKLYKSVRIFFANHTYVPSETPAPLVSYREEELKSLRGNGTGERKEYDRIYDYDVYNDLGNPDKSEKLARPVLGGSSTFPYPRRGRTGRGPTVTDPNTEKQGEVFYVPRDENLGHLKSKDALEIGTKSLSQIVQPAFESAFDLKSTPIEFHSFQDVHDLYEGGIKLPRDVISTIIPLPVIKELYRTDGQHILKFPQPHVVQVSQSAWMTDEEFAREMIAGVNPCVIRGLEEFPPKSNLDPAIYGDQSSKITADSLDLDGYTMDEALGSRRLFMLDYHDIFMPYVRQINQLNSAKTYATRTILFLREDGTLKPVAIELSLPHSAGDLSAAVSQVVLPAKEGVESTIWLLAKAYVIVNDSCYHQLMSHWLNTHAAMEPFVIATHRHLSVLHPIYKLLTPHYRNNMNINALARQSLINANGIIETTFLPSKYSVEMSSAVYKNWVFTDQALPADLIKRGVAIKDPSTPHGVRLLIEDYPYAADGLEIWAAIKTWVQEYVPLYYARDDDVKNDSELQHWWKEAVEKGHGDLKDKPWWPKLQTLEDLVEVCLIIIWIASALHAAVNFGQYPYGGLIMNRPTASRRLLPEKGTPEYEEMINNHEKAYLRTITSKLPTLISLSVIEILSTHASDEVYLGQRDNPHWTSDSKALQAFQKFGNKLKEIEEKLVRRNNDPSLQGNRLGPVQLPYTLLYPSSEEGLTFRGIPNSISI
# [3] = tested on: 5-LO; assay: 5-LO catalysed oxidation of the nitro compounds (substrate test); type: biochemical; conditions: pH 6.3 buffer, UV 234 nm
# Description: Based on this consideration, 5-LO, 12-LO and 15-LO catalysed oxidation of the nitro compounds (4a, 4b, 6a, 6b, 8a and 8b) was investigated. Each of the nitro compounds was treated with 15-LO in pH 9.0 buffer (or 5-LO in pH 6.3 buffer and 12-LO in pH 7.4 buffer), and the formation of 15-hydroperoxy derivatives (or 5-hydroperoxy or 12-hydroperoxy derivatives) over time was monitored by UV spectroscopy at 234 nm.
# [4] = tested on: human neutrophils; assay: Neutrophil lucigenin dependent chemiluminescence (superoxide production); type: cell-based; conditions: 20 μM
# Description: as §1, with “up. FIG. 7 illustrates the effects of Lx compounds on the neutrophil chemiluminescence reponse. Results are the means ±SEM of 4-12 experiments.” for “up.”
# [5] = tested on: human neutrophils; assay: Neutrophil degranulation: release of β-glucuronidase; type: cell-based; conditions: 20 μg/ml
# Description: as §1
smiles,measurement,setting,value
"CCCCC/C=C\C/C=C\C/C=C\C/C=C\CCCC(CCC(=O)O)[N+](=O)[O-] (centres unmarked) [Lx7, (a11-Z)-4-Nitrotricosa-8,11,14,17-tetraenoic acid]",Release of vitamin B12 binding protein (specific granule marker),[1],as potent as 20:4n-6 and 22:6n-3
same,Effect on 15-LO catalysed oxidation of AA,[2],Substrate
same,Substrate for 5-LO,[3],not for 5-LO
same,Neutrophil chemiluminescence response,[4],marginal compared to 20:4n-6 and 22:6n-3
same,Release of β-glucuronidase (azurophilic granule marker),[5],as potent as 20:4n-6 and 22:6n-3

# From patent publication US6924309B2 (Children, Youth and Women's Health Service Incorporated, priority 1999, dated 2005)
